In test [1] the test system is Enterococcus faecalis EFS.312, Daptomycin resistant mutant (EFA). It is filed as cell-based. Conditions: MHBc with 50 mg/L calcium, 18-20 hours at 37° C. As for the experimental part:
(§1) Compounds according to Formula I were tested for antimicrobial activity against a panel of organisms. Aerobic organisms, Staphylococcus aureus, Enterococcus faecalis and E. faecium, were tested by broth microdilution according to Clinical and Laboratory Standards Institute (CLSI) document M7-A7 (Clinical and Laboratory Standards Institute. Methods for Dilution Antimicrobial Susceptibility Tests for Bacteria that Grow Aerobically; Approved Standard—Seventh Edition. CLSI document M7-A7 [ISBN 1-56238-587-9]. Clinical and Laboratory Standards Institute, 940 West Valley Road, Suite 1400, Wayne, Pa. 19087-1898 USA, 2006) with modifications as described below. Mueller Hinton Broth (MHBc) was supplemented with 50 mg/L calcium (equivalent to human physiological levels of calcium) and assay plates were incubated 18-20 hours at 37° C. with aeration (200 rpm).
(§2) In all cases the final concentration of dimethyl sulfoxide incubated with cells is less than or equal to 1%. For minimum inhibitory concentration (MIC) calculations, 2-fold dilutions of compounds were added to wells of a microtiter plate containing 5×10^5 bacteria in a final volume of 100 μL of media. Following incubation, (18-20 hours at 37° C. with aeration at 200 rpm) growth was confirmed visually by placing plates over a viewing apparatus (stand with a mirror underneath) and then the optical density (OD600) was measured using a SpectraMax 340PC^384 plate reader. Growth was defined as turbidity that could be detected with the naked eye or achieving minimum OD600of 0.1. MIC values (in μg/mL) were defined as the lowest concentration producing no visible turbidity.

For test [2], the system named is Staphylococcus aureus SAU.278, Daptomycin resistant mutant (D10). It is filed as cell-based. Particulars: MHBc with 50 mg/L calcium, 18-20 hours at 37° C. The method, then: as §1, §2
Test [3] deals with Enterococcus faecium EFM.14 (ATCC 6569). It is filed as cell-based. As for the experimental part:
as §1, §2

In test [4] the test system is Enterococcus faecalis EFS.201 (ATCC 49452). Format: cell-based. As for the experimental part:
as §1, §2

Test [5] has as its system Enterococcus faecium EFM.384, Daptomycin resistant mutant (14-A). Format: cell-based. Conditions: MHBc with 50 mg/L calcium, 18-20 hours at 37° C. The method, then:
as §1, §2

The test system of test [6] is Staphylococcus aureus SAU.399 (ATCC 43300), Methicillin and Oxacillin Resistant. It is filed as cell-based. Conditions: ATCC 43300. The method, then:
as §1, §2

The mark [7] stands for this setting: MHBc with 50 mg/L calcium, 18-20 hours at 37° C.

Values joined by “and” are separate entries in the source; they are usually repeats but may differ in a detail not shown here. Equal values may be shown once. Read-outs that look alike come from different tables or passages of the source.

With `CCCCCCc1ccc(C(=O)N[C@@H](Cc2c[nH]c3ccccc23)C(=O)N[C@H](CC(N)=O)C(=O)N[C@@H](CC(=O)O)C(=O)N[C@@H]2C(=O)NCC(=O)N[C@@H](CCCN)C(=O)N[C@@H](CC(=O)O)C(=O)N[C@H](C)C(=O)N[C@@H](CC(=O)O)C(=O)NCC(=O)N[C@H](CO)C(=O)N[C@@H]([C@H](C)CC(=O)O)C(=O)N[C@@H](CC(=O)c3ccccc3N)C(=O)O[C@@H]2C)cc1` [Compound 32], the “Efs312 MIC” value in test [1] is >32 µg/mL and 32 µg/mL.
With `CCCCCCOc1ccc(-c2ccc(C(=O)N[C@@H](Cc3c[nH]c4ccccc34)C(=O)N[C@H](CC(N)=O)C(=O)N[C@@H](CC(=O)O)C(=O)N[C@@H]3C(=O)NCC(=O)N[C@@H](CCCN)C(=O)N[C@@H](CC(=O)O)C(=O)N[C@H](C)C(=O)N[C@@H](CC(=O)O)C(=O)NCC(=O)N[C@H](CO)C(=O)N[C@@H]([C@H](C)CC(=O)O)C(=O)N[C@@H](CC(=O)c4ccccc4N)C(=O)O[C@@H]3C)cc2)cc1` [Compound 62], the “Sa278 MIC” value in test [2] was 0.5 µg/mL. The “Efm14 MIC” value in test [3] (setting [7]) was 0.5 µg/mL. The “Efs312 MIC” value in test [1] is 2 µg/mL and 4 µg/mL. In addition, the “Efs201 MIC” value in test [4] (setting [7]) was 0.25 µg/mL. Besides, the “Efm384 MIC” value in test [5] came out at 1 µg/mL. Also, the “C. diff MIC90” value in the test on Clostridium difficile amounted to 2 µg/mL.
For the compound `CCCC1CCC(c2ccc(C(=O)N[C@@H](Cc3c[nH]c4ccccc34)C(=O)N[C@H](CC(N)=O)C(=O)N[C@@H](CC(=O)O)C(=O)N[C@@H]3C(=O)NCC(=O)N[C@@H](CCCN)C(=O)N[C@@H](CC(=O)O)C(=O)N[C@H](C)C(=O)N[C@@H](CC(=O)O)C(=O)NCC(=O)N[C@H](CO)C(=O)N[C@@H]([C@H](C)CC(=O)O)C(=O)N[C@@H](CC(=O)c4ccccc4N)C(=O)O[C@@H]3C)cc2)CC1` (single isomer, unassigned) [53 isomer I], the “Sa278 MIC” value in test [2] is 0.25 µg/mL and 0.5 µg/mL. In addition, the “Efm14 MIC” value in test [3] (ATCC 6569) was 0.25 µg/mL. Further, in test [1], the “Efs312 MIC” value was 2 µg/mL. Also, in test [6], the “Sa399 MIC” value was 0.125 µg/mL. The “Efm384 MIC” value in test [5] is 2 µg/mL and 1 µg/mL. Moreover, the “C. diff MIC90” value in the test with Clostridium difficile was found to be 1 µg/mL.
As for `CCCCCCCC/C=C/CC(=O)N[C@@H](Cc1c[nH]c2ccccc12)C(=O)N[C@H](CC(N)=O)C(=O)N[C@@H](CC(=O)O)C(=O)N[C@@H]1C(=O)NCC(=O)N[C@@H](CCCN)C(=O)N[C@@H](CC(=O)O)C(=O)N[C@H](C)C(=O)N[C@@H](CC(=O)O)C(=O)NCC(=O)N[C@H](CO)C(=O)N[C@@H]([C@H](C)CC(=O)O)C(=O)N[C@@H](CC(=O)c2ccccc2N)C(=O)O[C@@H]1C` [Compound 4], the “Efs312 MIC” value in test [1] is 32 µg/mL and 16 µg/mL. For the same compound, in test [5], the “Efm384 MIC” value is 8 µg/mL and 4 µg/mL.
Take `CCCCCCC1CCC(C(=O)N[C@@H](Cc2c[nH]c3ccccc23)C(=O)N[C@H](CC(N)=O)C(=O)N[C@@H](CC(=O)O)C(=O)N[C@@H]2C(=O)NCC(=O)N[C@@H](CCCN)C(=O)N[C@@H](CC(=O)O)C(=O)N[C@H](C)C(=O)N[C@@H](CC(=O)O)C(=O)NCC(=O)N[C@H](CO)C(=O)N[C@@H]([C@H](C)CC(=O)O)C(=O)N[C@@H](CC(=O)c3ccccc3N)C(=O)O[C@@H]2C)CC1` (some centres unmarked) [Compound 18]: the “Sa278 MIC” value in test [2] was 4 µg/mL and 2 µg/mL. Further, the “Efm14 MIC” value in test [3] (ATCC 6569) worked out at 2 µg/mL. Also, the “Efs312 MIC” value in test [1] is 32 µg/mL and 16 µg/mL. In addition, in test [6], the “Sa399 MIC” value amounted to 1 µg/mL. Besides, in test [5], the “Efm384 MIC” value turned out to be 8 µg/mL. Besides, the “C. diff MIC90” value with Clostridium difficile amounted to 0.5 µg/mL.
With `CCCCCCC(CCCC)C(=O)N[C@@H](Cc1c[nH]c2ccccc12)C(=O)N[C@H](CC(N)=O)C(=O)N[C@@H](CC(=O)O)C(=O)N[C@@H]1C(=O)NCC(=O)N[C@@H](CCCN)C(=O)N[C@@H](CC(=O)O)C(=O)N[C@H](C)C(=O)N[C@@H](CC(=O)O)C(=O)NCC(=O)N[C@H](CO)C(=O)N[C@@H]([C@H](C)CC(=O)O)C(=O)N[C@@H](CC(=O)c2ccccc2N)C(=O)O[C@@H]1C` (some centres unmarked) [Compound 8], the “Efs312 MIC” value in test [1] is above 32 µg/mL. The “Efm384 MIC” value in test [5] was 32 µg/mL and >32 µg/mL. Moreover, in the test on Clostridium difficile, the “C. diff MIC90” value was determined as 8 µg/mL.
For `C[C@H](CC(=O)O)[C@@H]1NC(=O)[C@@H](CO)NC(=O)CNC(=O)[C@H](CC(=O)O)NC(=O)[C@@H](C)NC(=O)[C@H](CC(=O)O)NC(=O)[C@H](CCCN)NC(=O)CNC(=O)[C@@H](NC(=O)[C@H](CC(=O)O)NC(=O)[C@@H](CC(N)=O)NC(=O)[C@H](Cc2c[nH]c3ccccc23)NC(=O)CCCCCc2ccccc2)[C@@H](C)OC(=O)[C@H](CC(=O)c2ccccc2N)NC1=O` [Compound 46], the “Sa278 MIC” value in test [2] is above 32 µg/mL. Besides, the “Efm14 MIC” value in test [3] (ATCC 6569) was above 32 µg/mL. Further, in test [1], the “Efs312 MIC” value is above 32 µg/mL. Further, the “Efs201 MIC” value in test [4] (ATCC 49452) was above 32 µg/mL. In addition, in test [5], the “Efm384 MIC” value is above 32 µg/mL. Moreover, the “C. diff MIC90” value with Clostridium difficile came to 16 µg/mL.
In the case of `CC(C)c1ccc(CCCC(=O)N[C@@H](Cc2c[nH]c3ccccc23)C(=O)N[C@H](CC(N)=O)C(=O)N[C@@H](CC(=O)O)C(=O)N[C@@H]2C(=O)NCC(=O)N[C@@H](CCCN)C(=O)N[C@@H](CC(=O)O)C(=O)N[C@H](C)C(=O)N[C@@H](CC(=O)O)C(=O)NCC(=O)N[C@H](CO)C(=O)N[C@@H]([C@H](C)CC(=O)O)C(=O)N[C@@H](CC(=O)c3ccccc3N)C(=O)O[C@@H]2C)cc1` [Compound 30, N-[4-(4-isopropylphenyl)butanoyl]-L-tryptophyl-D-asparaginyl-L-α-aspartyl-L-threonylglycyl-L-ornithyl-L-α-aspartyl-D-alanyl-L-α-aspartylglycyl-D-seryl-(3R)-3-methyl-L-α-glutamyl-(αS)-α,2-diamino-γ-oxobenzenebutanoic acid (13→4)-lactone], the “Sa278 MIC” value in test [2] came to 32 µg/mL. In test [1], the “Efs312 MIC” value is above 32 µg/mL. For the same compound, the “Efs201 MIC” value in test [4] (ATCC 49452) came to 8 µg/mL. Also, in test [5], the “Efm384 MIC” value is above 32 µg/mL. Also, in the test on Clostridium difficile, the “C. diff MIC90” value is 8 µg/mL.
Take `CCCCCCSc1ccc(-c2csc(C(=O)N[C@@H](Cc3c[nH]c4ccccc34)C(=O)N[C@H](CC(N)=O)C(=O)N[C@@H](CC(=O)O)C(=O)N[C@@H]3C(=O)NCC(=O)N[C@@H](CCCN)C(=O)N[C@@H](CC(=O)O)C(=O)N[C@H](C)C(=O)N[C@@H](CC(=O)O)C(=O)NCC(=O)N[C@H](CO)C(=O)N[C@@H]([C@H](C)CC(=O)O)C(=O)N[C@@H](CC(=O)c4ccccc4N)C(=O)O[C@@H]3C)c2)cc1` [Compound 57]: the “Sa278 MIC” value in test [2] is 2 µg/mL and 4 µg/mL. Further, the “C. diff MIC90” value in the test on Clostridium difficile was 8 µg/mL.
Turning to `CCCCCCOc1ccc(-c2csc(C(=O)N[C@@H](Cc3c[nH]c4ccccc34)C(=O)N[C@H](CC(N)=O)C(=O)N[C@@H](CC(=O)O)C(=O)N[C@@H]3C(=O)NCC(=O)N[C@@H](CCCN)C(=O)N[C@@H](CC(=O)O)C(=O)N[C@H](C)C(=O)N[C@@H](CC(=O)O)C(=O)NCC(=O)N[C@H](CO)C(=O)N[C@@H]([C@H](C)CC(=O)O)C(=O)N[C@@H](CC(=O)c4ccccc4N)C(=O)O[C@@H]3C)c2)cc1` [Compound 58, N-[4-(4-(hexyloxy)phenyl)thiophene-2-carbonyl]-L-tryptophyl-D-asparaginyl-L-α-aspartyl-L-threonylglycyl-L-ornithyl-L-α-aspartyl-D-alanyl-L-α-aspartylglycyl-D-seryl-(3R)-3-methyl-L-α-glutamyl-(αS)-α,2-diamino-γ-oxobenzenebutanoic acid (13→4)-lactone], the “Sa278 MIC” value in test [2] is 0.5 µg/mL and 1 µg/mL. The “C. diff MIC90” value in the test on Clostridium difficile stood at 4 µg/mL.
On to `CCCCCCCC1CCC(C(=O)N[C@@H](Cc2c[nH]c3ccccc23)C(=O)N[C@H](CC(N)=O)C(=O)N[C@@H](CC(=O)O)C(=O)N[C@@H]2C(=O)NCC(=O)N[C@@H](CCCN)C(=O)N[C@@H](CC(=O)O)C(=O)N[C@H](C)C(=O)N[C@@H](CC(=O)O)C(=O)NCC(=O)N[C@H](CO)C(=O)N[C@@H]([C@H](C)CC(=O)O)C(=O)N[C@@H](CC(=O)c3ccccc3N)C(=O)O[C@@H]2C)CC1` (some centres unmarked) [Compound 19], for which, in the test with Clostridium difficile, the “C. diff MIC90” value worked out at 0.250 µg/mL.
Same read-out and setting: with `CCCCCCC1CCC(c2ccc(C(=O)N[C@@H](Cc3c[nH]c4ccccc34)C(=O)N[C@H](CC(N)=O)C(=O)N[C@@H](CC(=O)O)C(=O)N[C@@H]3C(=O)NCC(=O)N[C@@H](CCCN)C(=O)N[C@@H](CC(=O)O)C(=O)N[C@H](C)C(=O)N[C@@H](CC(=O)O)C(=O)NCC(=O)N[C@H](CO)C(=O)N[C@@H]([C@H](C)CC(=O)O)C(=O)N[C@@H](CC(=O)c4ccccc4N)C(=O)O[C@@H]3C)cc2)CC1` (single isomer, unassigned) [54 isomer I] the figure was 4 µg/mL.

Source of the values: patent US20150337013A1, “NOVEL ANTIBACTERIAL AGENTS FOR THE TREATMENT OF GRAM POSITIVE INFECTIONS” (priority 2008, published 2015).
